From patent US11078202B2, “β-lactamase inhibitor and use thereof” (priority 2018, dated 2021)
Structures can show the parent of a compound that is named as a salt.

Legend:
Format in all cases: cell-based
[1] = tested on: Acinetobacter baumannii XNWB 0007; test: MIC assay of test compounds combined with ceftazidime (8 μg/mL); settings: ceftazidime 8 μg/mL fixed
How it was run: (§1)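 We recorded each combination MIC according to CLSI after culturing plates at 35±2 °C for 16-20 h. The inoculum consisted of colonies suspended in 0.9% NaCl (OD600 0.1-0.15) and diluted 300-fold with 1.1×CAMHB, mixed with compound dilutions and the partner β-lactam.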

[2] = tested on: Klebsiella pneumoniae XNWB 0001; test: as above; settings: ceftazidime 8 μg/mL fixed
How it was run: as §1

[3] = tested on: Klebsiella pneumoniae XNWB 0002; test: as above; settings: ceftazidime 8 μg/mL fixed
How it was run: as §1

[4] = tested on: Klebsiella pneumoniae XNWB 0003; test: as above; settings: ceftazidime 8 μg/mL fixed
How it was run: as §1

[5] = tested on: Klebsiella pneumoniae XNWB 0004; test: as above; settings: ceftazidime 8 μg/mL fixed
How it was run: as §1

[6] = tested on: Klebsiella pneumoniae XNWB 0005; test: as above; settings: ceftazidime 8 μg/mL fixed
How it was run: as §1

[7] = tested on: Klebsiella pneumoniae XNWB 0006; test: as above; settings: ceftazidime 8 μg/mL fixed
How it was run: as §1

[8] = tested on: Pseudomonas aeruginosa XNWB 0008; test: as above; settings: ceftazidime 8 μg/mL fixed
How it was run: as §1

[9] = tested on: Acinetobacter baumannii XNWB 0007; test: MIC assay of test compounds combined with imipenem (4 μg/mL); settings: imipenem 4 μg/mL fixed
How it was run: as §1

[10] = tested on: Klebsiella pneumoniae XNWB 0001; test: as above; settings: imipenem 4 μg/mL fixed
How it was run: as §1

[11] = tested on: Klebsiella pneumoniae XNWB 0002; test: as above; settings: imipenem 4 μg/mL fixed
How it was run: as §1

[12] = tested on: Klebsiella pneumoniae XNWB 0003; test: as above; settings: imipenem 4 μg/mL fixed
How it was run: as §1

[13] = tested on: Klebsiella pneumoniae XNWB 0004; test: as above; settings: imipenem 4 μg/mL fixed
How it was run: as §1

[14] = tested on: Klebsiella pneumoniae XNWB 0005; test: as above; settings: imipenem 4 μg/mL fixed
How it was run: as §1

[15] = tested on: Klebsiella pneumoniae XNWB 0006; test: as above; settings: imipenem 4 μg/mL fixed
How it was run: as §1

[16] = tested on: Pseudomonas aeruginosa XNWB 0008; test: as above; settings: imipenem 4 μg/mL fixed
How it was run: as §1

SMILES | The minimum concentration of test compounds combined with ceftazidime (8 μg/mL) for bacteriostasis [1] | The minimum concentration of test compounds combined with ceftazidime (8 μg/mL) for bacteriostasis [2] | The minimum concentration of test compounds combined with ceftazidime (8 μg/mL) for bacteriostasis [3] | The minimum concentration of test compounds combined with ceftazidime (8 μg/mL) for bacteriostasis [4] | The minimum concentration of test compounds combined with ceftazidime (8 μg/mL) for bacteriostasis [5] | The minimum concentration of test compounds combined with ceftazidime (8 μg/mL) for bacteriostasis [6] | The minimum concentration of test compounds combined with ceftazidime (8 μg/mL) for bacteriostasis [7] | The minimum concentration of test compounds combined with ceftazidime (8 μg/mL) for bacteriostasis [8] | The minimum concentration of test compounds combined with imipenem (4 μg/mL) for bacteriostasis [9] | The minimum concentration of test compounds combined with imipenem (4 μg/mL) for bacteriostasis [10] | The minimum concentration of test compounds combined with imipenem (4 μg/mL) for bacteriostasis [11] | The minimum concentration of test compounds combined with imipenem (4 μg/mL) for bacteriostasis [12] | The minimum concentration of test compounds combined with imipenem (4 μg/mL) for bacteriostasis [13] | The minimum concentration of test compounds combined with imipenem (4 μg/mL) for bacteriostasis [14] | The minimum concentration of test compounds combined with imipenem (4 μg/mL) for bacteriostasis [15] | The minimum concentration of test compounds combined with imipenem (4 μg/mL) for bacteriostasis [16]
O=C1N2C[C@H](N1OS(=O)(=O)O)C1(CC1)C[C@H]2c1nnc(CC2CNC2)o1 [Example 23, (1R,4S)-4-(5-(azetidin-3-ylmethyl)-1,3,4-oxadiazol-2-yl)-6-oxo-5,7-diazaspiro[bicycle [3.2.1]octane-2,1′-cyclopropan]-7-yl sulfate] | C (C: 16-128 μg/mL) | A (A: <8 μg/mL) | A (A: <8 μg/mL) | A (A: <8 μg/mL) | A (A: <8 μg/mL) | A (A: <8 μg/mL) | A (A: <8 μg/mL) | B (B: 8-16 μg/mL) | B (B: 8-16 μg/mL) | A (A: <8 μg/mL) | A (A: <8 μg/mL) | A (A: <8 μg/mL) | A (A: <8 μg/mL) | A (A: <8 μg/mL) | A (A: <8 μg/mL) | A (A: <8 μg/mL)
N=C(N)NC[C@H](O)c1cc([C@@H]2CC3(CC3)[C@@H]3CN2C(=O)N3OS(=O)(=O)O)no1 [Example 39, (1R,4S)-4-(5-((S)-2-guanidyl-1-hydroxyethyl)isoxazol-3-yl)-6-oxo-5,7-diazaspiro [bicyclo[3.2.1]octane-2,1′-cyclopropan]-7-yl sulfate] | C (C: 16-128 μg/mL) | A (A: <8 μg/mL) | A (A: <8 μg/mL) | A (A: <8 μg/mL) | A (A: <8 μg/mL) | A (A: <8 μg/mL) | A (A: <8 μg/mL) | B (B: 8-16 μg/mL) | B (B: 8-16 μg/mL) | A (A: <8 μg/mL) | A (A: <8 μg/mL) | A (A: <8 μg/mL) | A (A: <8 μg/mL) | A (A: <8 μg/mL) | A (A: <8 μg/mL) | A (A: <8 μg/mL)
